Key:
MV-4-11 cells = assay: Cell growth inhibition assay (CellTiter-Glo), MV-4-11; format: cell-based; details: Homo sapiens, MV4-11
Outline: (§1)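 Leukemia lines grown in their own media were exposed for 4 days at 37° C. to 3-fold serial dilutions from 10 μM (0.1% DMSO). Viability by CellTiter-Glo ATP luminescence, corrected for background and day-0 plate; IC50 and TGI from four-parameter fit against vehicle (100%) and medium (−100%).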

THP-1 cells = assay: Cell growth inhibition assay (CellTiter-Glo), THP-1; format: cell-based; details: Homo sapiens
Outline: as §1

K-562 cells = assay: Cell growth inhibition assay (CellTiter-Glo), K-562; format: cell-based, human; details: for GI50: Homo sapiens, K562
Outline: as §1

| GI50 (MV-4-11 cells) [nM] | GI50 (THP-1 cells) [nM] | GI50 (K-562 cells) [nM] | Compound | IC (TGI) (K-562 cells) [nM] |
| --- | --- | --- | --- | --- |
| 2000 | 2840 | > 10000 | COc1ncc(-n2nc(C)c3c2C(=O)N(c2cc(C)c(=O)n(C)c2)[C@H]3c2ccc(Cl)cc2)c(OC)n1 [Example 99, (S)-4-(4-chlorophenyl)-1-(2,4-dimethoxypyrimidin-5-yl)-5-(1,5-dimethyl-6-oxo-1,6-dihydropyridin-3-yl)-3-methyl-4,5-dihydropyrrolo-[3,4-c]pyrazol-6(1H)-one] | >10000 |
| 40.5 | 88 | 264 | COc1ncc(-n2nc(C)c3c2C(=O)N(c2cc(C)c(=O)n(C)c2)[C@@H]3c2ccc(Cl)cc2)c(OC)n1 [Example 100, (R)-4-(4-chlorophenyl)-1-(2,4-dimethoxypyrimidin-5-yl)-5-(1,5-dimethyl-6-oxo-1,6-dihydropyridin-3-yl)-3-methyl-4,5-dihydropyrrolo[3,4-c]pyrazol-6(1H)-one] |  |
| 25.7 | 53 | 261 | COc1ncccc1-n1nc(C)c2c1C(=O)N(c1cc(C)c3nnc(C)n3c1)C2c1ccc(Cl)cc1 (stereo not drawn) [Example 101, 4-(4-chlorophenyl)-5-(3,8-dimethyl-[1,2,4]triazolo[4,3-a]pyridin-6-yl)-1-(2-methoxypyridin-3-yl)-3-methyl-4,5-dihydropyrrolo[3,4-c]pyrazol-6(1H)-one] |  |
| 87.5 | 140 | 653 | Cc1nn(C2CC2)c2c1C(c1ccc(Cl)cc1)N(c1ccc3nnn(C)c3n1)C2=O (stereo not drawn) [Example 102, 4-(4-chlorophenyl)-1-cyclopropyl-3-methyl-5-(3-methyl-3H-[1,2,3]triazolo[4,5-b]-pyridin-5-yl)-4,5-dihydropyrrolo-[3,4-c]pyrazol-6(1H)-one] |  |
| 3590 | 7290 | > 10000 | Cc1nn(C(C)C)c2c1[C@H](c1ccc(Cl)cc1)N(c1cc(C)c(=O)n(C)c1)C2=O [Example 103, (S)-4-(4-chlorophenyl)-5-(1,5-dimethyl-6-oxo-1,6-dihydropyridin-3-yl)-1-isopropyl-3-methyl-4,5-dihydropyrrolo-[3,4-c]pyrazol-6(1H)-one] |  |
| 9.97 | 26.2 | 57.6 | Cc1nn(C(C)C)c2c1[C@@H](c1ccc(Cl)cc1)N(c1cc(C)c(=O)n(C)c1)C2=O [Example 104, (R)-4-(4-chlorophenyl)-5-(1,5-dimethyl-6-oxo-1,6-dihydropyridin-3-yl)-1-isopropyl-3-methyl-4,5-dihydropyrrolo[3,4-c]pyrazol-6(1H)-one] | >10000 |
| 102 | 188 | 729 | CCc1nn(C)c2c1C(c1ccc(Cl)cc1)N(c1cc(OC)c3nnc(C)n3c1)C2=O (stereo not drawn) [Example 105, 4-(4-chlorophenyl)-3-ethyl-5-(8-methoxy-3-methyl-[1,2,4]triazolo[4,3-a]pyridin-6-yl)-1-methyl-4,5-dihydropyrrolo-[3,4-c]pyrazol-6(1H)-one] |  |
| 649 | 2110 | 4060 | CCc1nn(C2CC2)c2c1[C@H](c1ccc(Cl)cc1)N(c1cc(C)c3nnc(C)n3c1)C2=O [Example 106, (S)-4-(4-chlorophenyl)-1-cyclopropyl-5-(3,8-dimethyl-[1,2,4]triazolo[4,3-a]pyridin-6-yl)-3-ethyl-4,5-dihydropyrrolo-[3,4-c]pyrazol-6(1H)-one] | >10000 |
| 7.28 | 8.18 | 37.9 | CCc1nn(C2CC2)c2c1[C@@H](c1ccc(Cl)cc1)N(c1cc(C)c3nnc(C)n3c1)C2=O [Example 107, (R)-4-(4-chlorophenyl)-1-cyclopropyl-5-(3,8-dimethyl-[1,2,4]triazolo[4,3-a]pyridin-6-yl)-3-ethyl-4,5-dihydropyrrolo-[3,4-c]pyrazol-6(1H)-one] | >10000 |
| 267 | 397 | 1510 | CCc1nn(CCOCC(F)(F)F)c2c1C(c1ccc(Cl)cc1)N(c1cc(OC)c3nnc(C)n3c1)C2=O (stereo not drawn) [Example 108, 4-(4-chlorophenyl)-3-ethyl-5-(8-methoxy-3-methyl-[1,2,4]triazolo[4,3-a]pyridin-6-yl)-1-(2-(2,2,2-trifluoroethoxy)ethyl)-4,5-dihydropyrrolo[3,4-c]pyrazol-6(1H)-one] |  |
| 18.6 | 39.8 | 269 | COc1ncccc1-n1nc(C)c2c1C(=O)N(c1cc(C)c3nnn(C)c3n1)C2c1ccc(Cl)cc1 (stereo not drawn) [Example 109, 4-(4-chlorophenyl)-5-(3,7-dimethyl-3H-[1,2,3]triazolo[4,5-b]pyridin-5-yl)-1-(2-methoxypyridin-3-yl)-3-methyl-4,5-dihydropyrrolo-[3,4-c]pyrazol-6(1H)-one] |  |
| 5.25 | 10.6 | 50.3 | Cc1nn(C2CC2)c2c1C(c1ccc(Cl)cc1)N(c1cc(C)c3nnn(C)c3n1)C2=O (stereo not drawn) [Example 110, 4-(4-chlorophenyl)-1-cyclopropyl-5-(3,7-dimethyl-3H-[1,2,3]triazolo[4,5-b]pyridin-5-yl)-3-methyl-4,5-dihydropyrrolo-[3,4-c]pyrazol-6(1H)-one] |  |
| 16.2 | 22 | 177 | COc1ncccc1-n1nc(C)c2c1C(=O)N(c1cc(C)c3nnc(C)n3n1)C2c1ccc(Cl)cc1 (stereo not drawn) [Example 111, 4-(4-chlorophenyl)-5-(3,8-dimethyl-[1,2,4]triazolo[4,3-b]pyridazin-6-yl)-1-(2-methoxypyridin-3-yl)-3-methyl-4,5-dihydropyrrolo-[3,4-c]pyrazol-6(1H)-one] |  |
| 758 | 1280 | 2810 | Cc1nn(C2CC2)c2c1C(c1ccc(Cl)cc1)N(c1cc(N(C)C(=O)OC(C)(C)C)c3nnc(C)n3n1)C2=O (stereo not drawn) [Example 112, tert-butyl (6-(4-(4-chlorophenyl)-1-cyclopropyl-3-methyl-6-oxopyrrolo[3,4-c]pyrazol-5(1H,4H,6H)-yl)-3-methyl-[1,2,4]triazolo[4,3-b]pyridazin-8-yl)(methyl)carbamate] |  |
| 20.4 | 30.4 | 187 | Cc1nn(-c2ccnn2C)c2c1C(c1ccc(Cl)cc1)N(c1cc(C)c3nnc(C)n3n1)C2=O (stereo not drawn) [Example 114, 4-(4-chlorophenyl)-5-(3,8-dimethyl-[1,2,4]triazolo[4,3-b]pyridazin-6-yl)-3-methyl-1-(1-methyl-1H-pyrazol-5-yl)-4,5-dihydropyrrolo-[3,4-c]pyrazol-6(1H)-one] |  |
| 22.4 | 34.8 | 142 | CCn1nc2c(c1C)C(c1ccc(Cl)cc1)N(c1cc(C)c3nnc(C)n3c1)C2=O (stereo not drawn) [Example 115, 4-(4-chlorophenyl)-5-(3,8-dimethyl-[1,2,4]triazolo[4,3-a]pyridin-6-yl)-2-ethyl-3-methyl-4,5-dihydropyrrolo-[3,4-c]pyrazol-6(2H)-one] |  |
| 12.5 | 18.8 | 81.2 | CCn1nc(C)c2c1C(=O)N(c1cc(C)c3nnc(C)n3c1)C2c1ccc(Cl)cc1 (stereo not drawn) [Example 116, 4-(4-chlorophenyl)-5-(3,8-dimethyl-[1,2,4]triazolo[4,3-a]pyridin-6-yl)-1-ethyl-3-methyl-4,5-dihydropyrrolo-[3,4-c]pyrazol-6(1H)-one] |  |
| 18.6 | 31.8 | 150 | Cc1cc(N2C(=O)c3c(c(C4CC4)nn3-c3ccnn3C)C2c2ccc(Cl)cc2)cn2c(C)nnc12 (stereo not drawn) [Example 117, 4-(4-chlorophenyl)-3-cyclopropyl-5-(3,8-dimethyl-[1,2,4]triazolo[4,3-a]pyridin-6-yl)-1-(1-methyl-1H-pyrazol-5-yl)-4,5-dihydropyrrolo-[3,4-c]pyrazol-6(1H)-one] |  |
| 6.15 | 9.45 | 62 | Cc1nn(C2CC2)c2c1[C@@H](c1ccc(Cl)cc1)N(c1cc(C)c3nnc(C)n3c1)C2=O [Example 119, (R)-4-(4-chlorophenyl)-1-cyclopropyl-5-(3,8-dimethyl-[1,2,4]triazolo[4,3-a]pyridin-6-yl)-3-methyl-4,5-dihydropyrrolo-[3,4-c]pyrazol-6(1H)-one] | >10000 |
| 55.7 | 79.2 | 402 | Cc1nn(-c2ccnn2C)c2c1[C@@H](c1ccc(Cl)cc1)N(c1cc(C)c(=O)n(C)c1)C2=O [Example 120, (R)-4-(4-chlorophenyl)-5-(1,5-dimethyl-6-oxo-1,6-dihydropyridin-3-yl)-3-methyl-1-(1-methyl-1H-pyrazol-5-yl)-4,5-dihydropyrrolo-[3,4-c]pyrazol-6(1H)-one] | >10000 |
| 830 | 2110 | 9710 | Cc1nn(-c2ccnn2C)c2c1[C@H](c1ccc(Cl)cc1)N(c1cc(C)c(=O)n(C)c1)C2=O [Example 121, (S)-4-(4-chlorophenyl)-5-(1,5-dimethyl-6-oxo-1,6-dihydropyridin-3-yl)-3-methyl-1-(1-methyl-1H-pyrazol-5-yl)-4,5-dihydropyrrolo-[3,4-c]pyrazol-6(1H)-one] |  |
| 3.41 | 4.32 | 24.1 | Cc1nn(C2CC2)c2c1[C@@H](c1ccc(Cl)cc1)N(c1cc(C)c3nnc(C)n3n1)C2=O [Example 122, (R)-4-(4-chlorophenyl)-1-cyclopropyl-5-(3,8-dimethyl-[1,2,4]triazolo[4,3-b]-pyridazin-6-yl)-3-methyl-4,5-dihydropyrrolo[3,4-c]pyrazol-6(1H)-one] |  |
| 2870 | 5880 | 9400 | Cc1nn(C2CC2)c2c1[C@H](c1ccc(Cl)cc1)N(c1cc(C)c3nnc(C)n3n1)C2=O [Example 123, (S)-4-(4-chlorophenyl)-1-cyclopropyl-5-(3,8-dimethyl-[1,2,4]triazolo[4,3-b]pyridazin-6-yl)-3-methyl-4,5-dihydropyrrolo-[3,4-c]pyrazol-6(1H)-one] |  |
